SMILES strings stand for the structures. pKi: −log10 of the molar value.

The target in one experiment is T1, Histamine H3 receptor (Homo sapiens, UniProt Q9Y5N1). Kind of experiment: Displacement of [125I]Iodoproxyfan from human histamine H3 receptor expressed in HEK293 cells. The experiment is classed as cell-based.
T1 sequence (Q9Y5N1 whole entry): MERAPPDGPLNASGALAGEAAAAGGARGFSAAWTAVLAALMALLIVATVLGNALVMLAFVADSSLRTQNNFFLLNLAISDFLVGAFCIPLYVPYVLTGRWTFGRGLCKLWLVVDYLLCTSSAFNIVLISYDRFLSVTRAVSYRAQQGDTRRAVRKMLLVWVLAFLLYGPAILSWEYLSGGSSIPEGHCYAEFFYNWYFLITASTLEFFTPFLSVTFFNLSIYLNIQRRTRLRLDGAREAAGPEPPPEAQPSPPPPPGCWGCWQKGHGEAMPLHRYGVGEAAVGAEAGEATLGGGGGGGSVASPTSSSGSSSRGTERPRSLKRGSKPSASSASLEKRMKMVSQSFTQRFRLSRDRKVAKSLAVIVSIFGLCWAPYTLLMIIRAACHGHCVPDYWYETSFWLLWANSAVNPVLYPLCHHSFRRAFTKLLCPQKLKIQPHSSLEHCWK
As for `CC(=O)c1sc(SCCCN2CCCCC2)nc1C`, the pKi was below 6.00.

In the case of `c1ccc(-c2cnc(CCCCN3CCCCC3)o2)cc1`, the pKi is 7.20.

In turn, `c1cncc(-c2noc(CCCCN3CCCCC3)n2)c1` showed a negative-log Ki (pKi) of 6.96.

Consider `c1ccc(-c2nc(SCCCN3CCCCC3)sc2-c2ccccc2)cc1`, for which the pKi was 8.13. This pKi lies 1.17 log units higher than the previous one.

Take `c1ccc(-c2nc(SCCCN3CCCCC3)oc2-c2ccccc2)cc1`: the pKi was 7.49.

Take `c1cc(-c2nnc(SCCCN3CCCCC3)o2)ccn1`: the pKi is 6.73.

For the compound `C1CCN(CCCOc2nc3c(s2)CN(CCCN2CCCCC2)CC3)CC1`, the pKi was 7.70.

Another experiment addresses T1, Histamine H3 receptor. The experiment is described as follows: Displacement of [3H]Methylhistamine from human histamine H3 receptor expressed in HEK293 cells. The experiment is classed as cell-based.
In turn, `c1cc(-c2nc(SCCCN3CCCCC3)nn2CCCN2CCCCC2)ccn1` showed a pKi of 7.74.
